For data set [1], the system named is Mycobacterium tuberculosis. The experiment in a line: Antitubercular activity against Mycobacterium tuberculosis H37Rv after […] by radiometric growth assay. In kind it is functional.
For data set [2], the system named is Mycobacterium tuberculosis. The experiment in a line: Bacteriostatic activity against Mycobacterium tuberculosis H37Rv at 1 ug/mL assessed as growth index after 7 days by radiometric growth assay (reference value: 210 growth index). The format is functional.
Data set [3] deals with Mycobacterium tuberculosis. The experiment in a line: Bacteriostatic activity against Mycobacterium tuberculosis H37Rv at 1 ug/mL assessed as growth index after 5 days by radiometric growth assay (reference value: 210 growth index). The format is functional.
Data set [4] deals with Mycobacterium tuberculosis. The experiment in a line: Bacteriostatic activity against Mycobacterium tuberculosis H37Rv at 1 ug/mL assessed as growth index after 10 days by radiometric growth assay (reference value: 210 growth index). In kind it is functional.
Data set [5] deals with Mycobacterium tuberculosis. The experiment in a line: Bacteriostatic activity against Mycobacterium tuberculosis H37Rv at 5 ug/mL assessed as growth index after 5 days by radiometric growth assay (reference value: 210 growth index). In kind it is functional.
Data set [6] has as its system Mycobacterium tuberculosis. The experiment in a line: Bacteriostatic activity against Mycobacterium tuberculosis H37Rv at 5 ug/mL assessed as growth index after 10 days by radiometric growth assay (reference value: 210 growth index). The format is functional.
For data set [7], the system named is Mycobacterium tuberculosis. The experiment in a line: Bacteriostatic activity against Mycobacterium tuberculosis H37Rv at 5 ug/mL assessed as growth index after 4 days by radiometric growth assay (reference value: 210 growth index). The format is functional.
Data set [8] relates to Mycobacterium tuberculosis. The experiment in a line: Bacteriostatic activity against Mycobacterium tuberculosis H37Rv at 1 ug/mL assessed as growth index after 3 days by radiometric growth assay (reference value: 210 growth index). The format is functional.
In data set [9] the test system is Mycobacterium tuberculosis. The experiment in a line: Bacteriostatic activity against Mycobacterium tuberculosis H37Rv at 1 ug/mL assessed as growth index after 4 days by radiometric growth assay (reference value: 210 growth index). In kind it is functional.
Data set [10] concerns Mycobacterium tuberculosis. The experiment in a line: Bacteriostatic activity against Mycobacterium tuberculosis H37Rv at 5 ug/mL assessed as growth index after 3 days by radiometric growth assay (reference value: 210 growth index). The format is functional.
Data set [11] has as its system Mycobacterium tuberculosis. The experiment in a line: Bacteriostatic activity against Mycobacterium tuberculosis H37Rv at 5 ug/mL assessed as growth index after 7 days by radiometric growth assay (reference value: 210 growth index). In kind it is functional.
The test system of data set [12] is Mycobacterium tuberculosis. The experiment in a line: Antitubercular activity against Mycobacterium tuberculosis H37Rv at 80 ug/mL by radiometric growth assay. The format is functional, organism-based.
In data set [13] the test system is Mycobacterium tuberculosis. The experiment in a line: Antitubercular activity against Mycobacterium tuberculosis H37Rv at 40 ug/mL by radiometric growth assay. In kind it is functional, organism-based.
Data set [14] deals with Trichophyton mentagrophytes. The experiment in a line: Antifungal activity against Trichophyton mentagrophytes 1773 up to 1 ug/mL after 14 days by broth dilution method. In kind it is functional, organism-based. On the technique in general: In broth dilution the organism is exposed to a series of concentrations in liquid medium.
In the next data set the test system is Rattus norvegicus. The experiment in a line: Acute toxicity in rat assessed as mortality at 3000 mg/kg, po after 14 days. The format is organism-based. Also on record: dose 3000 mg/kg, route oral. Particulars: in vivo, 336 h.
The subject of the next data set is Escherichia coli. The experiment in a line: Antibacterial activity against Escherichia coli F-50 up to 1 ug/mL after 5 days by broth dilution method. The format is functional, organism-based.
A further data set deals with Mus musculus. The experiment in a line: Acute toxicity in white outbred mouse assessed as mortality at 3000 mg/kg, po after 14 days. Details: dose 3000 mg/kg, route oral. Particulars: in vivo, 336 h. In kind it is organism-based.
In data set [15] the test system is Mycobacterium tuberculosis. The experiment in a line: Bacteriostatic activity against Mycobacterium tuberculosis H37Rv at 0.05 ug/mL assessed as growth index after 4 days by radiometric growth assay (reference value: 210 growth index). In kind it is functional.
Data set [16] relates to Mycobacterium tuberculosis. The experiment in a line: Bacteriostatic activity against Mycobacterium tuberculosis H37Rv at 0.1 ug/mL assessed as growth index after 4 days by radiometric growth assay (reference value: 210 growth index). In kind it is functional.
For data set [17], the system named is Mycobacterium tuberculosis. The experiment in a line: Antitubercular activity against Mycobacterium tuberculosis H37Rv at 10 ug/mL by radiometric growth assay. In kind it is functional, organism-based.
For data set [18], the system named is Mycobacterium tuberculosis. The experiment in a line: Bacteriostatic activity against Mycobacterium tuberculosis H37Rv at 0.1 ug/mL assessed as growth index after 7 days by radiometric growth assay (reference value: 210 growth index). In kind it is functional.
The subject of a further data set is Bacillus cereus. The experiment in a line: Antibacterial activity against Bacillus cereus 8035 up to 1 ug/mL after 5 days by broth dilution method. In kind it is functional, organism-based.
In another data set the test system is Staphylococcus aureus. The experiment in a line: Antibacterial activity against Staphylococcus aureus 209p up to 1 ug/mL after 5 days by broth dilution method. The format is functional, organism-based.
In data set [19] the test system is Mycobacterium tuberculosis. The experiment in a line: Antitubercular activity against Mycobacterium tuberculosis H37Rv at 1 ug/mL by radiometric growth assay. The format is functional, organism-based.
The subject of data set [20] is Mycobacterium tuberculosis. The experiment in a line: Bacteriostatic activity against Mycobacterium tuberculosis H37Rv at 0.1 ug/mL assessed as growth index after 5 days by radiometric growth assay (reference value: 210 growth index). The format is functional.
Data set [21] has as its system Mycobacterium tuberculosis. The experiment in a line: Bacteriostatic activity against Mycobacterium tuberculosis H37Rv at 0.05 ug/mL assessed as growth index after 3 days by radiometric growth assay (reference value: 210 growth index). The format is functional.
For data set [22], the system named is Mycobacterium tuberculosis. The experiment in a line: Bacteriostatic activity against Mycobacterium tuberculosis H37Rv at 0.1 ug/mL assessed as growth index after 3 days by radiometric growth assay (reference value: 210 growth index). In kind it is functional.
The test system of the next data set is Candida albicans. The experiment in a line: Antifungal activity against Candida albicans 855-653 up to 1 ug/mL after 14 days by broth dilution method. In kind it is functional, organism-based.
Another data set deals with Aspergillus niger. The experiment in a line: Antifungal activity against Aspergillus niger BKMF-1119 up to 1 ug/mL after 14 days by broth dilution method. In kind it is functional, organism-based.
For data set [23], the system named is Mycobacterium tuberculosis. The experiment in a line: Bacteriostatic activity against Mycobacterium tuberculosis H37Rv at 0.05 ug/mL assessed as growth index after 5 days by radiometric growth assay (reference value: 210 growth index). In kind it is functional.
Data set [24] has as its system Mycobacterium tuberculosis. The experiment in a line: Bacteriostatic activity against Mycobacterium tuberculosis H37Rv at 0.1 ug/mL assessed as growth index after 10 days by radiometric growth assay (reference value: 210 growth index). In kind it is functional.
The test system of data set [25] is Mycobacterium tuberculosis. The experiment in a line: Bacteriostatic activity against Mycobacterium tuberculosis H37Rv at 0.05 ug/mL assessed as growth index after 7 days by radiometric growth assay (reference value: 210 growth index). In kind it is functional.

Converted amounts (≈) assume the structure as drawn. The source made the active and inactive calls. The calls are words filed in the database; no cut-off is given here.

For orientation: MIC means the lowest concentration found to suppress growth. A higher MIC goes with weaker potency. As for `Cn1c(=O)n(C)c(=O)n(CCCCCC[S+]([O-])CC(N)=O)c1=O` (configuration not stated), the MIC in data set [1] turned out to be 1 µg/mL (≈ 2.89 µM). The Growth_index in data set [2] is given as 54; in [3], 47; in [4] it was above 90; in [5], 42; in data set [6], 66; in [7], 31. Further, the Growth_index in data set [8] was determined as 25; in [9], 45; in [10] it was 15; in data set [11], 66.

`Cn1c(=O)n(C)c(=O)n(C[S+]([O-])CC(=O)NN)c1=O` (configuration not stated): the minimum inhibitory concentration (MIC) in data set [1] is 1 µg/mL (≈ 3.43 µM). In addition, the Growth_index in data set [2] is reported as above 90; in data set [3] it was 78; in [5], 67; in data set [7] it was 17; in [8], 15; in data set [9] it was 48. Besides, the Growth_index is reported as 10 in [10] and above 90 in data set [11].

With `CO[C@H]1/C=C/O[C@@]2(C)Oc3c(C)c(O)c4c(O)c(c(/C=N/N5CCN(C)CC5)c(O)c4c3C2=O)NC(=O)/C(C)=C\C=C\[C@H](C)[C@H](O)[C@@H](C)[C@@H](O)[C@@H](C)[C@H](OC(C)=O)[C@@H]1C`, the outcome in [12] and in [13] was Active.

With `Cn1c(=O)n(C)c(=O)n(CCCCC[S+]([O-])CC(=O)NN)c1=O` (configuration not stated), the minimum inhibitory concentration (MIC) in [1] turned out to be 0.05 µg/mL (≈ 0.144 µM). Moreover, the result (in data set [14]; in the data set with Escherichia coli; in the data set on Bacillus cereus; in the data set on Staphylococcus aureus; in the data set on Candida albicans; in the data set with Aspergillus niger) was inactive. Also, the Activity result in the data set on Rattus norvegicus and in the data set on Mus musculus was “Non-toxic” each time. Also, the Growth_index is recorded as 27 in [15]; 0 in data set [16]; 2 in data set [18]; 1 in [20]; 15 in data set [21]; 0 in data set [22]. For the same compound, the Growth_index in [23] is on record as 32; in [24], 2; in [25] it was above 90. In addition, the result in [17] and in data set [19] was Active.

Values taken from ChEMBL document CHEMBL2034954, “Synthesis and antimycobacterial activity of novel 1,3-dimethylisocyanurate derivatives” (Eur J Med Chem, 2012).
